In the NIST ThermoML archive (doi:10.1016/j.jct.2018.07.004):
Several values for one entry are separate records, joined by “and”; a condition that tells them apart may be missing. Equal values may be shown once.

Settings: Calculated from knudsen effusion weight loss

c1ccc(-c2cc(-c3ccccc3)cc(-c3ccccc3)c2)cc1 [1,3,5-triphenylbenzene]
Crystal
Settings | vapor or sublimation pressure
408.04 K | 0.000144 kPa
408.05 K | 0.0001488 kPa
408.16 K | 0.0001536 kPa
413.04 K | 0.0002384 kPa
413.05 K | 0.000247 kPa
413.16 K | 0.0002528 kPa
418.03 K | 0.0003878 kPa
418.05 K | 0.0004034 kPa
418.15 K | 0.0004157 kPa
423.03 K | 0.0006219 kPa and 0.0006345 kPa
423.04 K | 0.0006477 kPa
423.16 K | 0.0006722 kPa
428.03 K | 0.0009832 kPa
428.04 K | 0.001026 kPa
428.16 K | 0.001081 kPa

CCn1cc[n+](C)c1.O=S(=O)([N-]S(=O)(=O)C(F)(F)F)C(F)(F)F
Liquid
Settings | vapor or sublimation pressure
433.05 K | 2.8e-06 kPa
433.1 K | 3e-06 kPa
438.04 K | 4.2e-06 kPa
438.1 K | 4.3e-06 kPa
438.12 K | 4.5e-06 kPa
443.04 K | 5.9e-06 kPa
443.09 K | 6.3e-06 kPa
443.12 K | 6.3e-06 kPa
448.03 K | 8.4e-06 kPa
448.09 K | 8.8e-06 kPa
448.12 K | 8.9e-06 kPa
453.03 K | 1.18e-05 kPa
453.09 K | 1.23e-05 kPa
453.11 K | 1.25e-05 kPa and 1.21e-05 kPa
453.12 K | 1.25e-05 kPa
458.01 K | 1.71e-05 kPa
458.02 K | 1.66e-05 kPa
458.09 K | 1.72e-05 kPa
458.11 K | 1.76e-05 kPa
458.13 K | 1.72e-05 kPa
463.05 K | 2.29e-05 kPa
463.08 K | 2.39e-05 kPa
463.1 K | 2.45e-05 kPa and 2.42e-05 kPa
463.12 K | 2.38e-05 kPa
463.13 K | 2.39e-05 kPa
468.04 K | 3.16e-05 kPa
468.08 K | 3.27e-05 kPa
468.1 K | 3.41e-05 kPa
468.11 K | 3.33e-05 kPa
468.12 K | 3.29e-05 kPa
468.13 K | 3.32e-05 kPa
473.04 K | 4.32e-05 kPa
473.07 K | 4.5e-05 kPa
473.1 K | 4.61e-05 kPa
473.12 K | 4.51e-05 kPa
473.13 K | 4.53e-05 kPa
473.14 K | 4.69e-05 kPa
478.04 K | 5.84e-05 kPa
478.07 K | 6.13e-05 kPa
478.09 K | 6.25e-05 kPa
478.12 K | 6.08e-05 kPa and 6.16e-05 kPa
478.13 K | 6.12e-05 kPa
483.04 K | 7.83e-05 kPa
483.06 K | 8.23e-05 kPa
483.08 K | 8.4e-05 kPa
483.11 K | 8.32e-05 kPa and 8.24e-05 kPa
483.12 K | 8.26e-05 kPa
488.05 K | 0.0001107 kPa
488.06 K | 0.0001105 kPa
488.08 K | 0.000112 kPa
488.11 K | 0.0001112 kPa and 0.0001115 kPa
493.05 K | 0.0001465 kPa
493.07 K | 0.0001477 kPa
493.1 K | 0.0001477 kPa
493.11 K | 0.0001477 kPa
498.1 K | 0.0001931 kPa
498.11 K | 0.0001943 kPa
503.1 K | 0.0002516 kPa and 0.0002533 kPa
